From patent publication US9422308B2, “Derivatives of docosahexaenoylethanolamide and uses thereof” (The United States of America, as represented by the …, priority 2012, dated 2016) come the findings set out here.

The test system of data set [1] is fatty acid amide hydrolase (FAAH). The experiment in a line: incubation with WT or FAAH KO brain homogenates (susceptibility to FAAH hydrolysis). It counts as in vitro ADME, mouse. The note with it: for susceptibility to hydrolysis by FAAH: WT or FAAH KO brain homogenates. How it is done:
Wildtype (WT) or FAAH knock out (KO) brain homogenates were incubated with either A8 or synaptamide.
Incubation of synaptamide and A8 with brain homogenates: Make 5× pH 9 assay buffer (625 mM Tris, 5 mM EDTA). Collect fresh brains of C57 mice into cold 1× pH 9 assay buffer. Homogenize entire brain (including cerebellum) in 2 mL of cold buffer using a conical Potter-Evehjem type tissue homogenizer driven by a motor. Perform incubations in washed and silanized 10 mL glass test tubes at 37° C. for 1 hour. Add 10 pmoles each of A8 and d4-synaptamide (5 uL of a 2 pmol/uL mixture of A8 and d4-synaptamide in DMSO). See Kim et al., Prostaglandins & Other Lipid Mediators, 96(1-4):114-120 (2011) for the structure of d4-synaptamide (d4-DEA). Add 500 μL of brain homogenate per incubation tube. Vortex gently. Incubate at 37° C. in a water bath, shaking at 42 rpm for 1 hour. Stop reaction by adding 1 mL chloroform, 1 mL methanol, 1 mL methanol/BHT (50 mg/L BHT) and 300 μL water. Vortex to mix, store under an inert gas at −80° C. until. Ready to extract via the method of Bligh and Dyer, Canadian J. Biochem. 37: 911-917, 1959.
Extraction procedure: Incubations are already in the 1st Bligh-Dyer ration (0.8:1:2 aqueous:CHCl3:MeOH). Work on wet ice. Add 10 pmoles of d4-anandamide which will be used as an internal standard to give relative quantification of the unhydrolyzed d4-synaptamide and A8. Add 1 mL water and 1 mL CHCl3 to each tube, purge with nitrogen, vortex vigorously 1 minute. Centrifuge 5 minutes at 4° C.; 3,000 rpm (Sorvall RTH 750 rotor) to separate phases. Extract the organic phase (bottom layer) to a clean silanized 10 mL test tube using glass Pasteur pipette. Avoid getting any aqueous phase in extract. Add 2 mL CHCl3 to the aqueous phase, purge with nitrogen and vortex 1 minute. […] Cap vials under argon and store at −80° C. until ready to analyze via HPLC-MS.
Ten pmoles each of A8 and d4-synaptamide were incubated with WT or FAAH KO brain homogenates or buffer (B, […]). Relative quantitation was performed via SRM mass spectrometry.

A further data set relates to FAAH KO mice. Nature of the data set: beam walk test after traumatic brain injury by controlled cortical impact. It counts as in vivo. The note with it: one-time i.p. 25 mg/kg at 15 min after TBI (CCI), from the day 4 after TBI, FIG. 8. How it is done: For the beam walk test, mice were trained to traverse a narrow beam before injury caused by controlled cortical impact (CCI), and the number of hind foot slips after injury was observed over the course of recovery.
A8 has increased resistance to FAAH in comparison to synaptamide but still does show some susceptibility to hydrolysis by FAAH. The effects of A8 in FAAH KO mice were tested by one-time i.p. administration of A8 (25 mg/kg) at 15 min after traumatic brain injury (TBI) inflicted by controlled cortical impact (CCI).

The next data set deals with neural stem cells. Nature of the data set: neuronal and glial differentiation of neural stem cells (MAP2/GFAP immunofluorescence). It counts as cell-based, rats. The note with it: 7 days, differentiating NSCs. How it is done:
Fetal neural stem cell culture: Neural stern cells (NSCs) were cultured by the neurosphere method (Rietze R. L., Reynolds B. A. (2006) Neural stem cell isolation and characterization. Methods Enzymol. 419, 3-23, the method incorporated by reference herein) with slight modification. Forebrain cortices of rats were isolated on embryonic day 14.5 and 12.5, respectively. The cortices were mechanically disrupted into single cells by repeated pipetting in a serum-free conditioned medium (N2 medium) containing DMEM/F12 (1:1), 0.6% (wt/vol) glucose, 0.1125% (wt/vol) sodium bicarbonate, 2 mM L-glutamine, 5 mM HEPES, 100 μg/mL human apo-transferrin, 20 nM progesterone, 30 nM sodium selenite, 60 μM putrescine, and 25 μg/mL insulin. The dissociated cells were cultured in 6 cm dishes at a density of 1×10^5 cells/mL in N2 medium with 20 ng/mL bFGF and 2 μg/mL heparin in a humidified 5% CO2/95% air incubator at 37° C. Within 3-4 days, the cells grew as free-floating neurospheres that were then collected by centrifugation, mechanically dissociated by pipetting, and passaged.
Differentiation of NSCs: After the second passage, nestin- and SOX2-positive NSCs were enriched in the neurosphere with minimal presence of differentiated cells (MAP2, Tuj-1 and GFAP-positive cells). After the second passage neurospheres were mechanically dissociated and 5×10^5 cells/mL were plated onto 15 μg/mL poly-L-ornithine coated 6- or 24-well plates in N2 medium without bFGF and heparin to initiate the differentiation. The cultures were then treated with N2 medium containing A8 in the presence of 40 μM vitamin E for 1-7 days. As the vehicle control, N2 medium containing 40 μM vitamin E was used.
Immunofluorescence staining: For immunofluorescence staining, 2.5×10^5 NSCs were cultured in 0.5 mL media. […] Finally, the cells were mounted with 80% (vol/vol) glycerol, visualized under a fluorescence microscope and the image data were processed using MetaMorph software for quantitative information. The number of MAP2- and GFAP-positive cells were counted from three separate wells with three to six random fields per well. […]

As for `CC/C=C\C/C=C\C/C=C\C/C=C\C/C=C\C/C=C\CCC(=O)NCC(C)(C)O` [Compound 1, (4Z,7Z,10Z,13Z,16Z,19Z)—N-(2-hydroxy-2-methylpropyl)docosa-4,7,10,13,16,19-hexaenamide], the “susceptibility to hydrolysis by FAAH” value in data set [1] (Example 3, FIG. 5) was “less susceptible to hydrolysis by FAAH than synaptamide”; in data set [1] (Example 4, 10 pmoles, pH 9, 37° C., 1 hour, FIG. 6, vs d4-synaptamide), “less susceptible to hydrolysis by FAAH than the deuterated synaptamide”. The “percent recovery of compound after incubation with brain homogenate” value in data set [1] (WT and FAAH KO brain homogenate, FIG. 5, compared with synaptamide) was “higher than synaptamide”. In the data set on FAAH KO mice, the “TBI-induced behavioral deficit (beam walk test, hind foot slips)” value is “significant improvement”. In the data set on neural stem cells (1 nM, control 7.0±0.8, p=0.02), this compound came in with an MAP2 positive cells of 10.8±1.8%. For the same compound, the “differentiation into GFAP positive cells” value in the data set on neural stem cells (1-100 nM range) is given as “not affected”. In the data set with neural stem cells (around 10 nM, p=0.007), the “MAP2 positive cells (maximum effect)” value is reported as 17.2±4.1%.
